Laboratory results as given in patent US5039665A, “Use of fructose-1,6-diphosphate for treating myocardial infarction” (priority 1990, dated 1991).

Columns and labels:
acute lethality in dogs = settings: dog, in vivo; administered 500 mg/min in dogs; approximately
Source text: From an energetic point of view the advantage of using FDP as the initial substrate is that the net yield of the anaerobic metabolism of one mole of glucose is 2 ATP, while if one mole of FDP is metabolized in the same conditions it will produce 4 ATP because there is no phosphorylation of glucose and fructose-6-phosphate, reactions which require utilization of ATP. On the other hand, while doubling the quantity of ATP produced, lactate production remains the same as though one mole of glucose had been metabolized. It is obvious that in order to obtain results in the direction of making usuable energy from FDP, it is necessary to administer a large quantity. (The LD50 of FDP when administered 500 mg/min in dogs is approximately 5.8-6 g/kg.)

[1] = plasma lactic acid after intravenous FDP in dogs; format: in vivo, dog
Source text: To allow for a broader and more complete interpretation of the results, a small paragraph will be devoted to the ability of FDP to cross the cellular membranes.

[2] = system: experimental animals and man; assay: antishock activity in experimental animals and in man; settings: in vivo
[3] = 5 g of FDP IV over 10 min, at one hour

O=C(COP(=O)(O)O)[C@@H](O)[C@H](O)[C@H](O)COP(=O)(O)O [FDP, fructose-1,6-diphosphate]
LD50 (acute lethality in dogs): 5800 to 6000 mg/kg
plasma lactic acid [1, 3]: 16.45±2.16 mg %
plasma lactic acid increase [1, 3]: 21/2
plasma lactic acid ([1]; before FDP (baseline)): 6.13±1.7 mg %
antishock activity [2]: profound antishock activity in experimental animals and in man
